In patent US10538490B2, “Benzylaminopyridylcyclopropanecarboxylic acids, pharmaceutical compositions and uses thereof” (Boehringer Ingelheim International GmbH, priority 2016, dated 2020):
≈ marks a conversion by molar mass, not a printed value.

How the values were obtained:
human GPR40 receptor = human GPR40 receptor (Homo sapiens, UniProt O14842); assay: IP1 accumulation measurements using the IPOne assay system; type: cell-based; details: 1321N1 cells stably expressing human GPR40 receptor, stimulation 1 h at 37° C.
Procedure: IP1 accumulation measurements using the IPOne assay system—1321N1 cells stably expressing human GPR40 receptor (Euroscreen, Belgium) are seeded 24 h before the assay in white 384-well plates in culture medium containing 10% FCS, 1% Na-Pyruvate and 400 μg/mL G418. IPi is assayed according to the manufacturer's description (Cisbio Bioassays, France). In brief, the assay is started by substitution of the culture medium by stimulation buffer (Hepes 10 mM, CaCl2 1 mM, MgCl2 0.5 mM, KCl 4.2 mM, NaCl 146 mM, glucose 5.5 mM and LiCl 50 mM, pH 7.4). Cells are stimulated for 1 h at 37° C., 5% CO2 by addition of the compounds that are diluted in stimulation buffer containing LiCl. Assays are stopped by adding HTRF-conjugates (IP1-d2 and Anti-IP1 cryptate Tb) and lysis buffer, provided by the manufacturer. After an incubation time of 1 h at room temperature plates are measured using an EnVision™, Perkin Elmer. The obtained fluorescence ratios at 665/615 […] are then used to calculate the pEC50 values using Assay Explorer 3.3 Software (Accelrys, Inc.) by interpolation using an IP1 reference curve and subsequent sigmoidal curve fitting allowing for a variable hill slope.

[1] = Aqueous solubility in buffer versus acetonitrile/water (1/1), LC-UV; type: physicochemical; details: kinetic from dmso stock, buffer pH 2.2, 24 h shaking, 2.5% DMSO, ">" if more than 90% dissolved
Procedure: The aqueous solubility of the compounds of the invention is determined by comparing the amount dissolved in buffer to the amount in an acetonitrile/water (1/1) solution. Starting from a 10 mM DMSO stock solution aliquots are diluted with acetonitrile/water (1/1) or buffer, respectively. After 24 h of shaking, the solutions are filtrated and analyzed by LC-UV. The amount dissolved in buffer is compared to the amount in the acetonitrile solution.
Solubility is usually being measured from 0.001 to 0.125 mg/mL at a DMSO concentration of 2.5%. If more than 90% of the compound is dissolved in buffer, the value is marked with “>”.

[2] = Chemical stability (degradation kinetics) at pH value of ca. 1.2; type: physicochemical; details: pH value of ca. 1.2 (acetonitrile/0.1 M aqueous HCl 2:3), 37° C., HPLC
Procedure: Degradation kinetics is used to simulate chemical stability of compounds in the acidic part of the gastro intestinal tract. […] Their application as medical drugs to treat human diseases is therefore less restricted and troublesome.
The chemical stability of the compounds of the invention at pH value of ca. 1.2 is determined as follows:
Compound is dissolved in an HPLC vial either in a mixture of acetonitrile/0.1 M aqueous HCl (2:3; pH ca. 1.2) or in a mixture of acetonitrile/Mcllvaine buffer pH 7.4 (2:3) to get a concentration of approximately 0.25 mg/ml. The vial was then transferred into an HPLC autosampler system and maintained at a temperature of 37° C. A first sample is taken and injected immediately into a standard HPLC system with a UV DAD detector. Further samples are injected after 2, 4, 6, 8 and 10 hours. Amount of degraded compound is measured by determining the recovery rate of compound [%] for each injection using an HPLC standard gradient method. Therefore the peak area of the main peak for the first injection (AUt0) is determined and set as 100%. Peak area of the main peak is determined also for the further injections (AUtn, n=2, 4, 6, 8, 10) and expressed as fraction of […] [%].

Chain of human GPR40 receptor (O14842 whole entry): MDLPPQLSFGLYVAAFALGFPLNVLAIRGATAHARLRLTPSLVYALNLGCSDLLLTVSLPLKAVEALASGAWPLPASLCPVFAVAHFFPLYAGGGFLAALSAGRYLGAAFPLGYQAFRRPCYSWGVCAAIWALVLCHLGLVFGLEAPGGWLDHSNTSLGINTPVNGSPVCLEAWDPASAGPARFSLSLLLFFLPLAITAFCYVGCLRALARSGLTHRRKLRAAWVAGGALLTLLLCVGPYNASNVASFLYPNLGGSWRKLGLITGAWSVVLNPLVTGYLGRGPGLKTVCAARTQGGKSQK

| SMILES | EC50 (human GPR40 receptor) | solubility at 24 h [1] | Amount of degradation after 2 h [2] |
| --- | --- | --- | --- |
| Cc1cc(OCCC(C)(C)O)cc(C)c1-c1ccc(F)c(CNc2ccc([C@H]3C[C@@H]3C(=O)O)cn2)c1 [Example 1] | 0.045 µM | 87 µg/mL (≈ 177 µM) |  |
| Cc1cc(OCCC(C)(C)O)cc(C)c1-c1cc(CNc2ccc([C@H]3C[C@@H]3C(=O)O)cn2)c(F)cc1F [Example 2] | 0.042 µM | 83 µg/mL (≈ 163 µM) |  |
| CC(C)(O)CCOc1ccc(-c2cc(CNc3ccc([C@H]4C[C@@H]4C(=O)O)cn3)ccc2C(F)(F)F)cc1 [Example 4, (1S,2S)-2-(6-{[4′-(3-Hydroxy-3-methyl-butoxy)-6-trifluoromethyl-biphenyl-3-ylmethyl]-amino}-pyridin-3-yl)-cyclopropanecarboxylic Acid] | 0.015 µM | 92 µg/mL (≈ 179 µM) | <0.5% |
| O=C(O)[C@H]1C[C@@H]1c1ccc(NCc2ccc(C(F)(F)F)c(-c3ccc(OCC4CC4)cc3)c2)nc1 [Example 7, (1S,2S)-2-{6-[(4′-Cyclopropylmethoxy-6-trifluoromethyl-biphenyl-3-ylmethyl)-amino]-pyridin-3-yl}-cyclopropanecarboxylic acid] | 0.034 µM | 30 µg/mL (≈ 62.2 µM) |  |
| Cc1cccc(C)c1-c1ccc(F)c(CNc2ccc([C@H]3C[C@@H]3C(=O)O)cn2)c1 [Example 18] | 0.131 µM | > 120 µg/mL | <0.5% |
| Cc1ccc(Cl)c(-c2ccc(F)c(CNc3ccc([C@H]4C[C@@H]4C(=O)O)cn3)c2)c1Cl [Example 25] | 0.041 µM | 83 µg/mL (≈ 186 µM) |  |
| COc1cc(C)c(-c2ccc(F)c(CNc3ccc([C@H]4C[C@@H]4C(=O)O)cn3)c2)c(C)c1 [Example 26] | 0.079 µM | 91 µg/mL (≈ 216 µM) |  |
| COc1cc(OC)c(-c2ccc(F)c(CNc3ccc([C@H]4C[C@@H]4C(=O)O)cn3)c2)c(OC)c1 [Example 30] | 0.877 µM | 112 µg/mL (≈ 248 µM) |  |
| Cc1cc(C#N)cc(C)c1-c1ccc(F)c(CNc2ccc([C@H]3C[C@@H]3C(=O)O)cn2)c1 [Example 35] | 0.137 µM | 86 µg/mL (≈ 207 µM) |  |
| Cc1cc(O[C@H]2CCOC2)cc(C)c1-c1ccc(F)c(CNc2ccc([C@H]3C[C@@H]3C(=O)O)cn2)c1 [Example 38] | 0.094 µM | 99 µg/mL (≈ 208 µM) |  |
| Cc1cc(OC2CCOCC2)cc(C)c1-c1ccc(F)c(CNc2ccc([C@H]3C[C@@H]3C(=O)O)cn2)c1 [Example 42] | 0.1 µM | 87 µg/mL (≈ 177 µM) |  |
| Cc1cc(-c2cc(=O)n(C)cn2)cc(C)c1-c1ccc(F)c(CNc2ccc([C@H]3C[C@@H]3C(=O)O)cn2)c1 [Example 43] | 0.054 µM | 107 µg/mL (≈ 215 µM) |  |
| Cc1cc(-c2nnn(C)n2)cc(C)c1-c1ccc(F)c(CNc2ccc([C@H]3C[C@@H]3C(=O)O)cn2)c1 [Example 48] | 0.02 µM | 102 µg/mL (≈ 216 µM) | <0.5% |
| Cc1cnc(-c2cc(C)c(-c3ccc(F)c(CNc4ccc([C@H]5C[C@@H]5C(=O)O)cn4)c3)c(C)c2)nc1 [Example 53] | 0.015 µM | 78 µg/mL (≈ 162 µM) |  |
| Cc1cc(OCC2(O)CCOCC2)cc(C)c1-c1ccc(F)c(CNc2ccc([C@H]3C[C@@H]3C(=O)O)cn2)c1 [Example 55] | 0.22 µM | 122 µg/mL (≈ 234 µM) |  |
| Cc1cccc(C)c1-c1cc(CNc2ccc([C@H]3C[C@@H]3C(=O)O)cn2)c(F)cc1F [Example 61] | 0.036 µM | 42 µg/mL (≈ 103 µM) |  |
| Cc1ccc(Cl)c(-c2cc(CNc3ccc([C@H]4C[C@@H]4C(=O)O)cn3)c(F)cc2F)c1Cl [Example 67] | 0.031 µM | 84 µg/mL (≈ 181 µM) |  |
| COc1cc(C)c(-c2cc(CNc3ccc([C@H]4C[C@@H]4C(=O)O)cn3)c(F)cc2F)c(C)c1 [Example 68] | 0.059 µM | > 120 µg/mL |  |
| Cc1cc(C#N)cc(C)c1-c1cc(CNc2ccc([C@H]3C[C@@H]3C(=O)O)cn2)c(F)cc1F [Example 77] | 0.083 µM | 97 µg/mL (≈ 224 µM) |  |
| Cc1cc(O[C@@H]2CCOC2)cc(C)c1-c1cc(CNc2ccc([C@H]3C[C@@H]3C(=O)O)cn2)c(F)cc1F [Example 80] | 0.059 µM | 106 µg/mL (≈ 214 µM) |  |
| Cc1cc(-c2nnn(C)n2)cc(C)c1-c1cc(CNc2ccc([C@H]3C[C@@H]3C(=O)O)cn2)c(F)cc1F [Example 90] | 0.008 µM | 89 µg/mL (≈ 181 µM) |  |

More lines, now with the values ahead:

| EC50 (human GPR40 receptor) | solubility at 24 h [1] | Amount of degradation after 2 h [2] | SMILES |
| --- | --- | --- | --- |
| 0.016 µM | 103 µg/mL (≈ 211 µM) |  | Cc1cc(-c2ccnn2C)cc(C)c1-c1cc(CNc2ccc([C@H]3C[C@@H]3C(=O)O)cn2)c(F)cc1F [Example 92] |
| 0.072 µM | 82 µg/mL (≈ 188 µM) |  | CCc1cccc(CC)c1-c1cc(CNc2ccc([C@H]3C[C@@H]3C(=O)O)cn2)c(F)cc1F [Example 93] |
| 0.011 µM | 88 µg/mL (≈ 176 µM) |  | Cc1cnc(-c2cc(C)c(-c3cc(CNc4ccc([C@H]5C[C@@H]5C(=O)O)cn4)c(F)cc3F)c(C)c2)nc1 [Example 95] |
| 0.189 µM | 123 µg/mL (≈ 228 µM) |  | Cc1cc(OCC2(O)CCOCC2)cc(C)c1-c1cc(CNc2ccc([C@H]3C[C@@H]3C(=O)O)cn2)c(F)cc1F [Example 97] |
| 0.008 µM | 97 µg/mL (≈ 188 µM) |  | COc1cc(-c2cc(C)c(-c3cc(CNc4ccc([C@H]5C[C@@H]5C(=O)O)cn4)c(F)cc3F)c(C)c2)ccn1 [Example 99] |
|  |  | 5% | Cc1cc(OCCCS(C)(=O)=O)cc(C)c1-c1ccc(F)c2c1CC[C@H]2Oc1ccc([C@H]2C[C@@H]2C(=O)O)cc1 [WO 2013/178575 Example 11] |
|  | < 1 µg/mL | 3% | Cc1cc(C(=O)NCC(C)(C)O)cc(C)c1-c1ccc(F)c2c1CC[C@H]2Oc1ccc([C@H]2C[C@@H]2C(=O)O)cc1 [WO 2013/178575 Example 15, reference compound] |
|  | < 1 µg/mL | 8% | Cc1cc(OCCC(C)(C)O)cc(C)c1-c1ccc(F)c2c1CC[C@H]2Oc1ccc([C@H]2C[C@@H]2C(=O)O)cc1 [WO 2013/178575 Example 17, reference compound] |
|  |  | 8% | Cc1cccc(C)c1-c1ccc(F)c2c1CC[C@H]2Oc1ccc(C2CC2C(=O)O)cc1 (stereo partly shown) [WO 2013/178575 Example 33] |
|  | < 1 µg/mL |  | Cc1cc(-c2nnn(C)n2)cc(C)c1-c1ccc(F)c2c1CC[C@H]2Oc1ccc([C@H]2C[C@@H]2C(=O)O)cc1 [WO 2013/178575 Example 45, reference compound] |
|  | < 1 µg/mL | 2.5% | Cc1c(C#N)cccc1-c1ccc(F)c2c1CC[C@H]2Oc1ccc([C@H]2C[C@@H]2C(=O)O)cc1 [WO 2013/178575 Example 54, reference compound] |
